Assay results: paper PMC8410836, “Rational design of hyperstable antibacterial peptides for food preservation” (NPJ Science of Food, 2021)
Values after ≈ are worked out from the molar mass of the structure shown. Where two headings read alike, the source gives them in different places. Where a SMILES comes first, the peptide text is derived from it. Bridges are numbered along the chain shown (N, C = ends).

Key:
[1] = test system: Micrococcus luteus ATCC4698
Experimental: (§1) Four Gram-positive bacteria: Listeria monocytogenes ATCC13932, Bacillus cereus ATCC11778, Staphylococcus aureus ATCC12900, and Micrococcus luteus ATCC4698 and three Gram-negative bacteria: Escherichia coli ATCC11775, Pectobacterium carotovorum MCC2112, and Salmonella typhimurium ATCC9844 were used in this study. These strains were stored at −80 °C in 25% (v/v) glycerol.
(§2) Antimicrobial assays against various bacterial cultures were done using the microdilution broth assay according to the Clinical and Laboratory Standards Institute (CLSI)[64] with some modifications. Mueller-Hinton broth was used to dilute the peptide stock and the bacterial inoculum. Inoculum was prepared from the mid-logarithmic phase culture. Each well of the microtiter plates received aliquots of 100 µL of the media containing different concentrations of peptide ranging from 0.3 to 300 µg/mL. The final concentration of bacteria in the wells was 5 × 10^5 Colony Forming Units (CFU) per mL. Ampicillin was used as positive control. For negative control, ultrapure water was used instead of peptides. Microtiter plates were incubated at 37 °C for 5–6 h with continuous shaking at 130 rpm (M. luteus cells were incubated for 7–8 h). The incubation time used for these assays was initially optimized using a 20-h incubation period. […] MIC assays were performed as three independent experiments in triplicates.

[2] = test system: Salmonella typhimurium ATCC9844
Experimental: as §1, §2

[3] = test system: Pectobacterium carotovorum MCC2112
Experimental: as §1, §2

[4] = test system: Listeria monocytogenes ATCC13932
Experimental: as §1, §2

[5] = test system: Escherichia coli ATCC11775
Experimental: as §1, §2

[6] = test system: Bacillus cereus ATCC11778
Experimental: as §1, §2

[7] = test system: Staphylococcus aureus ATCC12900
Experimental: as §1, §2

bovine trypsin [8] = molecular target: T1, bovine trypsin (Bos taurus, UniProt P00760); assay: biochemical; details: SEM
Experimental: (§3) The amidase activity of trypsin and its inhibition was assayed using the chromogenic substrate BAPNA at pH 8.2 in 0.05 M Tris-HCl containing 0.02 M CaCl2 at 37 °C. The assay reaction contained 50 µL of trypsin solution (40–50 μg of trypsin in 1 mM HCl), 50 µL of water, and 125 µL of the substrate. The reaction was carried out at 37 °C for 10 min and stopped by addition of 0.25 mL of 30% acetic acid. […] The trypsin solution was incubated with an aliquot of inhibitor for 10 min at 37 °C and reaction started by the addition of 125 µL substrate and incubated at 37 °C for 10 min. […] The effect of varying substrate concentration (BAPNA) on bovine trypsin in the presence of fixed concentrations of peptides was studied. The inhibition constants (Ki) were evaluated using the double reciprocal and Dixon plot of the data[65],[66]. Data presented are averages and standard error calculated from two biological replicate experiments.

bovine trypsin [9] = molecular target: T1, bovine trypsin; details: BAPNA substrate, pH 8.2, 0.05 M Tris-HCl, 0.02 M CaCl2, 37 °C; double reciprocal and Dixon plot; mean and standard error of two biological replicates
Experimental: as §3

[10] = microdilution broth (CLSI, modified), Mueller-Hinton broth, 5 × 10^5 CFU/mL, 37 °C, 7–8 h, resazurin colour change, three independent experiments in triplicates
[11] = microdilution broth, MH broth, 5 × 10^5 CFU/mL, 37 °C, 5–6 h, resazurin

T1 sequence (P00760 24-246): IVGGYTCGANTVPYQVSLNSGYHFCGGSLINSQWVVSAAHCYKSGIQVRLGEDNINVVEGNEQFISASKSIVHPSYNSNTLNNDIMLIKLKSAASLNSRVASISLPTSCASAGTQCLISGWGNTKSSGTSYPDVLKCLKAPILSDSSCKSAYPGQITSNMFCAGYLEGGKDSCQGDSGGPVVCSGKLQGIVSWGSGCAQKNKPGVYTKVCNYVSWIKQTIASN

Row | Compound | MIC (µg/mL) M. luteus [1, 10] | MIC Salmonella typhimurium [2, 11] | MIC Pectobacterium carotovorum [3, 11] | MIC Listeria monocytogenes [4, 11] | MIC Escherichia coli [5, 11] | MIC Bacillus cereus [6, 11] | MIC Staphylococcus aureus [7, 11] | Ki (bovine trypsin [8]) | MIC (µg/mL) M. luteus ([1]; ATCC4698) | other results
1 | CC[C@H](C)[C@H](NC(=O)[C@H](Cc1ccccc1)NC(=O)[C@H](CO)NC(=O)[C@@H](N)CCCNC(=N)N)C(=O)N[C@@H](Cc1ccccc1)C(=O)NCC(=O)N[C@H]1CSSC[C@@H](C(=O)N[C@@H](Cc2ccccc2)C(=O)N[C@H](C(=O)NCC(=O)N[C@@H](Cc2ccccc2)C(=O)N[C@@H](CCCCN)C(=O)O)C(C)C)NC(=O)[C@H]([C@@H](C)CC)NC(=O)[C@@H]2CCCN2C(=O)[C@@H]2CCCN2C(=O)[C@H]([C@@H](C)CC)NC(=O)[C@H](CO)NC(=O)[C@H](CCCCN)NC(=O)[C@H]([C@@H](C)O)NC1=O [HSEP3a] (H-RSFIFGCTKSIPPICFVGFK-OH; disulfide 7-15) | 12.5 µg/mL (≈ 5.57 µM) | >150 µg/mL | >150 µg/mL | >150 µg/mL | >150 µg/mL | >150 µg/mL | >150 µg/mL | 0.055 µM | – | –
2 | CC[C@H](C)[C@H](NC(=O)[C@@H](NC(=O)[C@H](CO)NC(=O)[C@@H](N)CCCNC(=N)N)C(C)C)C(=O)N[C@@H](Cc1ccccc1)C(=O)NCC(=O)N[C@H]1CSSC[C@@H](C(=O)N[C@@H](Cc2ccccc2)C(=O)N[C@H](C(=O)NCC(=O)N[C@@H](Cc2ccccc2)C(=O)N[C@@H](CCCCN)C(=O)O)C(C)C)NC(=O)[C@H]([C@@H](C)CC)NC(=O)[C@@H]2CCCN2C(=O)[C@@H]2CCCN2C(=O)[C@H]([C@@H](C)CC)NC(=O)[C@H](CCCCN)NC(=O)[C@H](CO)NC(=O)[C@H](CCCCN)NC(=O)[C@H]([C@@H](C)O)NC1=O [HSEP3c] (H-RSVIFGCTKSKIPPICFVGFK-OH; disulfide 7-16; N-terminus and C-terminus assumed) | – | – | – | – | – | – | – | 1.4 µM | 3.125 µg/mL (≈ 1.34 µM) | MIC Salmonella typhimurium ([2]; ATCC9844): >150 µg/mL; MIC Pectobacterium carotovorum [3]: 50 µg/mL (≈ 21.5 µM); MIC Listeria monocytogenes ([4]; ATCC13932): 50 µg/mL (≈ 21.5 µM); MIC Escherichia coli ([5]; ATCC11775): 100 µg/mL (≈ 43 µM); MIC Bacillus cereus ([6]; ATCC11778): 100 µg/mL (≈ 43 µM); MIC Staphylococcus aureus ([7]; ATCC12900): 150 µg/mL (≈ 64.5 µM)
3 | CC[C@H](C)[C@H](NC(=O)[C@@H](NC(=O)[C@@H](N)CO)C(C)C)C(=O)NCC(=O)N[C@H]1CSSC[C@@H](C(=O)N[C@@H](Cc2ccccc2)C(=O)N[C@H](C(=O)N[C@@H](CCCCN)C(=O)O)C(C)C)NC(=O)[C@H]([C@@H](C)CC)NC(=O)[C@@H]2CCCN2C(=O)[C@@H]2CCCN2C(=O)[C@H]([C@@H](C)CC)NC(=O)[C@H](CO)NC(=O)[C@H](CCCCN)NC(=O)[C@H]([C@@H](C)O)NC1=O [HSEP1] (H-SVIGCTKSIPPICFVK-OH; disulfide 5-13) | 75 µg/mL (≈ 44.4 µM) | – | – | – | – | – | – | 0.23 µM | – | –
4 | CC[C@H](C)[C@@H]1NC(=O)[C@@H]2CCCN2C(=O)[C@@H]2CCCN2C(=O)[C@H]([C@@H](C)CC)NC(=O)[C@H](CO)NC(=O)[C@H]([C@@H](C)O)NC(=O)[C@@H](NC(=O)[C@H](C)N)CSSC[C@@H](C(=O)NCC(=O)N[C@@H](CCCCN)C(=O)O)NC1=O [HSEP2-ΔHR-ΔK8] (H-ACTSIPPICGK-OH; disulfide 2-9) | >150 µg/mL | – | – | – | – | – | – | – | – | –
5 | CC[C@H](C)[C@H](NC(=O)[C@@H](NC(=O)[C@@H](N)CO)C(C)C)C(=O)N[C@@H](Cc1ccccc1)C(=O)NCC(=O)N[C@H]1CSSC[C@@H](C(=O)N[C@@H](Cc2ccccc2)C(=O)N[C@H](C(=O)NCC(=O)N[C@@H](Cc2ccccc2)C(=O)O)C(C)C)NC(=O)[C@H]([C@@H](C)CC)NC(=O)[C@@H]2CCCN2C(=O)[C@@H]2CCCN2C(=O)[C@H]([C@@H](C)CC)NC(=O)[C@H](CO)NC(=O)[C@H](CCCCN)NC(=O)[C@H]([C@@H](C)O)NC1=O [HSEP2-∆K19] (H-SVIFGCTKSIPPICFVGF-OH; disulfide 6-14) | 25 µg/mL (≈ 13.1 µM) | >150 µg/mL | >150 µg/mL | >150 µg/mL | >150 µg/mL | >150 µg/mL | >150 µg/mL | 0.44 µM | – | –
6 | CC[C@H](C)[C@@H]1NC(=O)[C@@H]2CCCN2C(=O)[C@@H]2CCCN2C(=O)[C@H]([C@@H](C)CC)NC(=O)[C@H](CO)NC(=O)[C@H](CCCCN)NC(=O)[C@H]([C@@H](C)O)NC(=O)[C@@H]2CSSC[C@H](NC1=O)C(=O)N[C@@H](Cc1ccccc1)C(=O)N1CCC[C@H]1C(=O)N[C@@H](CC(=O)O)C(=O)NCC(=O)N[C@@H](CCCNC(=N)N)C(=O)N2 [SFTI-cyclic, reference compound] | no detectable inhibitory activity | – | – | – | – | – | – | – | – | –
7 | CC[C@H](C)[C@H](NC(=O)[C@@H](NC(=O)[C@@H](N)CO)C(C)C)C(=O)N[C@@H](Cc1ccccc1)C(=O)NCC(=O)N[C@H]1CSSC[C@@H](C(=O)N[C@@H](Cc2ccccc2)C(=O)N[C@H](C(=O)NCC(=O)N[C@@H](Cc2ccccc2)C(=O)N[C@@H](CCCCN)C(=O)O)C(C)C)NC(=O)[C@H]([C@@H](C)CC)NC(=O)[C@@H]2CCCN2C(=O)[C@@H]2CCCN2C(=O)[C@H]([C@@H](C)CC)NC(=O)[C@H](CO)NC(=O)CNC(=O)[C@H]([C@@H](C)O)NC1=O [HSEP2-K8G] (H-SVIFGCTGSIPPICFVGFK-OH; disulfide 6-14) | – | – | – | – | – | – | – | – | 37.5 µg/mL (≈ 19 µM) | Ki (M) against bovine trypsin (bovine trypsin [9]): failed to show any trypsin inhibition
8 | CC[C@H](C)[C@H](NC(=O)[C@@H](NC(=O)[C@H](CO)NC(=O)[C@@H](N)CCCNC(=N)N)C(C)C)C(=O)N[C@@H](Cc1ccccc1)C(=O)NCC(=O)N[C@H]1CSSC[C@@H](C(=O)N[C@@H](Cc2ccccc2)C(=O)N[C@H](C(=O)NCC(=O)N[C@H](C(=O)N[C@@H](CCCNC(=N)N)C(=O)O)[C@@H](C)O)C(C)C)NC(=O)[C@H]([C@@H](C)CC)NC(=O)[C@@H]2CCCN2C(=O)[C@@H]2CCCN2C(=O)[C@H]([C@@H](C)CC)NC(=O)[C@H](CO)NC(=O)[C@H](CCCCN)NC(=O)[C@H]([C@@H](C)O)NC1=O [HSEP3b] (H-RSVIFGCTKSIPPICFVGTR-OH; disulfide 7-15) | 6.25 µg/mL (≈ 2.87 µM) | >150 µg/mL | 50 µg/mL (≈ 22.9 µM) | 100 µg/mL (≈ 45.9 µM) | >150 µg/mL | 50 µg/mL (≈ 22.9 µM) | >150 µg/mL | 0.5 µM | – | –
9 | CC[C@H](C)[C@H](NC(=O)[C@H](Cc1c[nH]c2ccccc12)NC(=O)[C@H](CO)NC(=O)[C@@H](N)CCCNC(=N)N)C(=O)N[C@@H](Cc1ccccc1)C(=O)N[C@H]1CSSC[C@@H](C(=O)N[C@@H](Cc2ccccc2)C(=O)N[C@H](C(=O)NCC(=O)N[C@@H](Cc2c[nH]c3ccccc23)C(=O)N[C@@H](CCCNC(=N)N)C(=O)O)C(C)C)NC(=O)[C@H]([C@@H](C)CC)NC(=O)[C@@H]2CCCN2C(=O)[C@@H]2CCCN2C(=O)[C@H]([C@@H](C)CC)NC(=O)[C@H](Cc2ccc(O)cc2)NC(=O)[C@H](CCCNC(=N)N)NC(=O)[C@H]([C@@H](C)O)NC1=O [HSEP3d] (H-RSWIFCTRYIPPICFVGWR-OH; disulfide 6-14; N-terminus and C-terminus assumed) | – | – | – | – | – | – | – | 0.37 µM | 3.125 µg/mL (≈ 1.3 µM) | MIC Salmonella typhimurium ([2]; ATCC9844): >150 µg/mL; MIC Pectobacterium carotovorum [3]: >150 µg/mL; MIC Listeria monocytogenes ([4]; ATCC13932): >150 µg/mL; MIC Escherichia coli ([5]; ATCC11775): >150 µg/mL; MIC Bacillus cereus ([6]; ATCC11778): 100 µg/mL (≈ 41.7 µM); MIC Staphylococcus aureus ([7]; ATCC12900): >150 µg/mL
10 | CC[C@H](C)[C@H](NC(=O)[C@@H](NC(=O)[C@@H](N)CO)C(C)C)C(=O)NCC(=O)N[C@H]1CSSC[C@@H](C(=O)N[C@@H](Cc2ccccc2)C(=O)N[C@H](C(=O)N[C@@H](CCCCN)C(=O)O)C(C)C)NC(=O)[C@@H]2CCCN2C(=O)[C@H](CCCNC(=N)N)NC(=O)[C@@H]2CCCN2C(=O)[C@@H]2CCCN2C(=O)[C@H]([C@@H](C)CC)NC(=O)[C@H](CO)NC(=O)[C@H](CCCCN)NC(=O)[C@H]([C@@H](C)O)NC(=O)[C@H](Cc2c[nH]c3ccccc23)NC1=O [HVBBI, reference compound] (H-SVIGCWTKSIPPRPCFVK-OH; disulfide 5-15) | 150 µg/mL (≈ 74.4 µM) | – | – | – | – | – | – | 0.37 µM | – | –
